The test system of data set [1] is phenyl-p-quinone (phenylquinone). Nature of the data set: Anti-phenylquinone Writhing Test. It is filed as in vivo, mice. The settings on record: Mus musculus. The method, then: This test is used to confirm the anti-acetylcholine writhing test. The ability of compounds to prevent phenyl-p-quinone (phenylquinone)-induced writhing in mice is determined in this test. […] Animals are pretreated with test compounds (15 minutes for subcutaneous route, 30 minutes for oral route) and observed for three one-minute intervals during the 5-12 minutes following administration. Mice responsing fewer than three times during the three one-minute observation periods are scored protected while those responding three or more times are scored not protected. Test compounds are screened using 10-14 animals per treatment, usually at doses of 75-100 mg./kg. subcutaneously or 150-200 mg./kg. orally. […] ED50 values for active compounds are estimated by probit analysis of quantal scores for 3-5 dosage levels using 14-30 animals per dose. Vehicle-pretreated control animals are tested daily.
On the technique in general: An intraperitoneal irritant provokes the stretching counted in writhing tests.

Another data set concerns acetylcholine. Nature of the data set: Anti-acetylcholine Writhing Test. It is filed as in vivo, mice. The settings on record: Mus musculus, 20 min. The method, then:
This response has also been called writhing. Animals are pretreated with test compounds (20 minutes for both subcutaneous and oral routes) and observed for two minutes immediately following the administration of acetylcholine. Mice not responding during the two-minute observation period are scored protected while those responding one or more times are scored not protected. Test compounds are screened at doses of 75 and 25 mg./kg. subcutaneously or 150 and 50 mg./kg. orally. […] ED50 values for active compounds are estimated by probit analysis of quantal scores for 4 or more dosage levels using 15 animals per dose. Vehicle-pretreated control animals are tested concurrently with each run of 15 experimental animals.

Data set [2] relates to ethylenediaminetetraacetic acid (EDTA). Put plainly: EDTA Antinociceptive Test. It is filed as in vivo, guinea pig. The settings on record: Cavia porcellus, sc, 0.5 h; subcutaneous; reduces response score to 6 or less. The procedure:
This is also a secondary evaluation of analgesic activity. The test animal is the guinea pig. A threshold intradermal dose of ethylenediaminetetraacetic acid (EDTA) which can reproducibly elicit a cumulative response score of 12-18 discrete episodes of jumping, rearing, running, vocalization and biting or scratching at the site of injection within 40 seconds after challenge is determined for each animal. Thirty minutes after the administration of saline or test compound to 6-7 animals per dose, each animal is again challenged with its own threshold dose of EDTA. An effective drug dose is considered to be one which reduces the response score to 6 or less.

A further data set has as its system analgesic activity. Put plainly: Analgesic activity, summary of the foregoing tests in experimental animals. Type of data set: in vivo. The settings on record: summary of the foregoing test results. The procedure:
As stated above the compounds of Formula I are useful as analgesics and mostly also useful as narcotic antagonists as shown by tests in experimental animals. As presumptive tests of analgesia the anti-acetylcholine writhing, anti-phenylquinone writhing, anti-bradykinin and EDTA anti-nociceptive tests are carried out as follows: […]

A further data set deals with bradykinin. Nature of the data set: Anti-bradykinin Test. The settings on record: Rattus norvegicus, 2 h. It is filed as in vivo, Rats. The method, then: This is a secondary evaluation of analgesic activity. […] The threshold dose of bradykinin required for production of the response is determined for each animal, and is readministered at fixed intervals during a two-hour period following the subcutaneous or oral administration of test compounds. In the control response marked rotation of the head and flexion of the forepaw are each scored +2, for a total response score (TRS) of +4. For post-medication scoring any decrease in head rotation or paw flexion from control is each scored +1, rather than +2, while no movement of either the head or paw is each scored 0. Therefore, the TRS following any bradykinin challenge can vary from 0 to 4. Animals whose TRSs are 0-0, 0-+1 or +1-0 after any two consecutive bradykinin challenges during the two-hour post-medication period are scored protected. […] ED50 values of active compounds are estimated by probit analysis of quantal scores from 4 or more dosage levels using 5 animals per dose. In addition the average TRSs obtained at each test interval with each treatment are plotted to permit examination of time-effect relationships and to provide a rough expression of drug effect using graded data. A vehicle-pretreated control animal is tested daily. Synthetic bradykinin from Sandoz Pharmaceuticals is diluted with saline to the proper concentrations for determination of threshold doses for producing the response. All bradykinin injections are made at a constant volume of 0.2 ml. per rat.

The subject of a further data set is narcotics. Put plainly: Tail-flick Antagonist Test, narcotic not specified.
Data set [3] deals with thermal stimulus applied to the tail. Put plainly: Tail-flick Agonist Test. It is filed as in vivo, Rats. The settings on record: for ED50: Rattus norvegicus, sc, 0.5 h; for activity as agonist: tail-flick test, result in words. The method, then: Rats normally respond to a thermal stimulus applied to the tail by flicking their tails out from under the heat source. The intensity of the stimulus utilized is one which produces control response-times (CRT) of 2-4 seconds. Experimental response-times (ERT) are determined 30 minutes after subcutaneous injections and 60 minutes after oral medications. […] Therefore, the maximum possible increase (MPI) in response-time for any given animal is 20 minus the CRT. The average percent effect, or percent of the maximum possible increase (%MPI) obtained after any given test compound treatment is calculated by the formula [formula] […] ED50 or ED80 values of active compounds are obtained by the Miller and Tainter [Proc. Soc. Exptl.

For data set [4] the following is noted: Ziering reference; all tests other than writhing; cited from earlier work.
Data set [5] has as its system meperidine. Put plainly: Tail-flick Antagonist Test against meperidine. The conditions noted are these: Rattus norvegicus.
The next data set relates to phenazocine. Put plainly: Tail-flick Antagonist Test against phenazocine. The settings on record: Rattus norvegicus.
The subject of data set [6] is morphine. Nature of the data set: Tail-flick Antagonist Test against morphine. The settings on record: Rattus norvegicus.
Data set [7] concerns morphine. Nature of the data set: morphine antagonist activity in the rat. The settings on record: as the free base.
Data set [8] relates to meperidine. Nature of the data set: meperidine antagonist activity in the rat. The conditions noted are these: as the free base.
[9] abbreviates: po, 0.5 h, read-out: ED50 (95% Confidence Limits), Oral.
Where [10] appears, read: sc, 0.25 h, read-out: ED50 (95% Confidence Limits), Subcutaneous.
Where [11] appears, read: po, oral, read-out: ED50 (95% Confidence Limits), Oral.
Where [12] appears, read: sc, subcutaneous, base, read-out: Subcutaneous ED50 (95% Confidence Limits).
[13] abbreviates: sc, subcutaneous, free base or acid addition salt, read-out: ED50 (95% Confidence Limits), Subcutaneous.
[14] abbreviates: po, read-out: ED50 (95% Confidence Limits), Oral.
The mark [15] stands for this setting: sc, read-out: ED50 (95% Confidence Limits), Subcutaneous.
[16] abbreviates: summary of the foregoing test results.
Setting [17] is: tail-flick antagonist test, result in words.
[18] abbreviates: sc, subcutaneous, form tested not given, read-out: Subcutaneous ED50 (95% Confidence Limits).
Where [19] appears, read: subcutaneously, unit inferred, read-out: agonist ED50.
Where [20] appears, read: sc, 10 min, read-out: Subcutaneous AD50 (95% Confidence Limits) Against Meperidine.
The mark [21] stands for this setting: subcutaneous, 120 Mg./Kg. of Base.

Structures can show the parent of a compound that is named as a salt. Where two headings read alike, the source gives them in different places.

Turning to `CC[C@]12CCN(CC3CC3)[C@H](C(=O)c3ccc(O)cc31)[C@@H]2C` (relative stereo) [Example 29, 1,2,3,4,5,6-hexahydro-1-oxo-3-cyclopropylmethyl-8-hydroxy-6(eq)-ethyl-11(ax)-methyl-2,6-methano-3-benzazocine], the ED50 in data set [1] (setting [9]) was 9.1 mg/kg; in data set [1] (setting [10]), 0.03 mg/kg; with acetylcholine (setting [11]), 7.6 mg/kg; in the data set on acetylcholine (setting [12]), 0.045 mg/kg; in the data set with acetylcholine (setting [13]) it was 0.074 mg/kg; in the data set on bradykinin (setting [14]) it was 11 mg/kg. Also, the ED50 in the data set on bradykinin (setting [15]) is 0.053 mg/kg; in data set [3] (read-out: Tail-flick Agonist Subcutaneous ED50), 9 ± 10 mg/kg; in [3] (subcutaneously, read-out: agonist ED50), 9 ± 10 mg/kg. Further, the minimal effective dose in data set [2] was 0.025 mg/kg. Besides, in the data set with analgesic activity, the analgesic activity result is “strong analgesic activity”. Moreover, the narcotic antagonist activity result in the data set with narcotics (setting [16]) is listed as “weak narcotic antagonist activity”; with narcotics (setting [17]) it was “Inactive”. Moreover, the narcotic activity entry in data set [3] (setting [16]) is given as “no narcotic activity”. In addition, the activity as agonist entry in data set [3] is “active”.

Consider `C[C@H]1[C@H]2C(=O)c3ccc(O)cc3[C@]1(C)CCN2CC1CCC1` (relative stereo) [Example 35B, 1,2,3,4,5,6-hexahydro-1-oxo-3-cyclobutylmethyl-8-hydroxy-6(eq),11(ax)-dimethyl-2,6-methano-3-benzazocine], for which the ED50 is 3.9 mg/kg with acetylcholine (setting [18]) and 200 ± 49 mg/kg in data set [3] (setting [19]). Besides, the narcotic antagonist activity result in the data set on narcotics (setting [17]) was “inactive”. In data set [3], the activity as agonist result is recorded as “weakly active”.

Turning to `COc1ccc2c(c1)[C@]1(C)CCN(C)[C@@H]([C@@H]1C)[C@@]2(O)c1ccccc1` (relative stereo) [Compound 13], the “activity in all other tests” value in data set [4] is “inactive”.

Take `COc1ccc2c(c1)[C@]1(C)CCN(C)[C@@H]([C@@H]1C)[C@]2(C)O` (relative stereo) [Compound 14]: in data set [4], the “activity in all other tests” value is “inactive”.

As for `C=CCN1CC[C@@]2(C)c3cc(O)ccc3[C@@H](O)[C@@H]1[C@@H]2C` (relative stereo) [Example 17, 1,2,3,4,5,6-hexahydro-1(eq),8-dihydroxy-3-allyl-6(eq),11(ax)-dimethyl-2,6-methano-3-benzazocine], the ED50 in the data set with acetylcholine (setting [18]) worked out at 4.8 mg/kg; with meperidine [5] (setting [20]), 0.98 mg/kg.

In the case of `C[C@H]1[C@H]2[C@H](O)c3ccc(O)cc3[C@]1(C)CCN2CC1CC1` (relative stereo) [Example 18, 1,2,3,4,5,6-hexahydro-1(eq),8-dihydroxy-3-cyclopropylmethyl-6(eq), 11(ax)-dimethyl-2,6-methano-3-benzazocine hydrochloride], the results for the ED50 with acetylcholine (setting [18]) and with meperidine [5] (setting [20]) were 10 mg/kg and 11 mg/kg, respectively.

As to `C[C@H]1[C@H]2C(=O)c3ccc(O)cc3[C@]1(C)CCN2CCc1ccccc1` (relative stereo) [Example 34, 1,2,3,4,5,6-hexahydro-1-oxo-3-(2-phenylethyl)-8-hydroxy-6(eq),11(ax)-dimethyl-2,6-methano-3-benzazocine], the ED50 in the data set on acetylcholine (setting [18]) was 4.2 mg/kg; in data set [3] (setting [19]) it was 56 ± 9.1 mg/kg. Further, the narcotic antagonist activity result in the data set with narcotics (setting [17]) is “inactive”. In [3], the activity as agonist result was “weakly active”.

Turning to `C[C@H]1[C@H]2C(=O)c3ccc(O)cc3[C@]1(C)CCN2CC1CC1` (relative stereo) [Example 1, 1,2,3,4,5,6-hexahydro-1-oxo-3-cyclopropylmethyl-8-hydroxy-6(eq),11(ax)-dimethyl-2,6-methano-3-benzazocine], the ED50 turned out to be 15.2 mg/kg in [1] (setting [9]); 0.16 mg/kg in data set [1] (setting [10]); 12 mg/kg in the data set with acetylcholine (setting [11]); 0.12 mg/kg in the data set on acetylcholine (setting [12]); 0.16 mg/kg in the data set with acetylcholine (setting [13]); 0.16 mg/kg in the data set with acetylcholine (sc, subcutaneous, hydrochloride salt, read-out: Subcutaneous ED50 (95% Confidence Limits)). Further, the ED50 with acetylcholine (sc, subcutaneous, methanesulfonate salt, read-out: Subcutaneous ED50 (95% Confidence Limits)) came to 0.16 mg/kg; in the data set on meperidine [5] (po, 20 min, read-out: AD50 (95% Confidence Limits) Against Meperidine, Oral) it was 78 mg/kg; in the data set with meperidine [5] (sc, 10 min, read-out: AD50 (95% Confidence Limits) Against Meperidine, Subcutaneous), 7.2 mg/kg; with meperidine [5] (setting [20]), 2 mg/kg; with phenazocine (po, 20 min, read-out: AD50 (95% Confidence Limits) Against Phenazocine, Oral) it was 63 mg/kg; with phenazocine (sc, 10 min, read-out: AD50 (95% Confidence Limits) Against Phenazocine, Subcutaneous), 5 mg/kg. For the same molecule, the ED50 in the data set with phenazocine (sc, 10 min, read-out: Subcutaneous AD50 (95% Confidence Limits) Against Phenazocine) was found to be 4.3 mg/kg; with bradykinin (setting [14]) it was 10 mg/kg; in the data set with bradykinin (setting [15]) it was 0.069 mg/kg; in the data set on morphine [6] (po, 20 min, read-out: AD50 (95% Confidence Limits) Against Morphine, Oral), 91 mg/kg; in the data set on morphine [6] (sc, 10 min, read-out: AD50 (95% Confidence Limits) Against Morphine, Subcutaneous) it was 4.9 mg/kg; in the data set with morphine [6] (sc, 10 min, read-out: Subcutaneous AD50 (95% Confidence Limits) Against Morphine), 4 mg/kg. The molecule also displayed a minimal effective dose in data set [2] of 0.03 mg/kg. The analgesic activity entry in the data set on analgesic activity was “strong analgesic activity”. The narcotic antagonist activity result with narcotics (setting [16]) is on record as “weak narcotic antagonist activity”. Further, in [3] (oral, 200 Mg./Kg. of Base), the “Percent Inhibition of Response, Oral” value turned out to be 11.2%. In addition, the dead in data set [3] (oral, 200 Mg./Kg. of Base) was 1/6. For the same molecule, the righting reflex entry in data set [3] (oral, 200 Mg./Kg. of Base) is on record as “partial loss”. In addition, the salivation entry in [3] (oral, 200 Mg./Kg. of Base) is “slight”. Further, in [3] (setting [21]), the “Percent Inhibition of Response, Subcutaneous” value worked out at 2.3%. Also, in data set [3] (setting [21]), the “activity (observed side effect)” value is “decreased”. Further, the observed side effect entry in data set [3] (setting [21]) is “atoxia”.

In the case of `COc1ccc2c(c1)[C@]1(C)CCN(C)[C@H](C2=O)[C@@H]1C` (relative stereo) [Compound 12], the activity against morphine entry with morphine [7] is “inactive”. Moreover, the activity against meperidine entry in the data set with meperidine [8] is “weakly active”.

The term minimal effective dose denotes the lowest level tested that produced the effect sought. Read a high minimal effective dose as weaker potency.

(Values after patent publication US4161598A, “1-Oxygenated-2,6-methano-3-benzazocines” (Sterling Drug Inc., priority 1977, dated 1979).)
